Test results: patent US20260216280A1, “COMPOSITION FOR PREVENTING AND TREATING ISCHEMIC CEREBROVASCULAR DISEASE COMPRISING GINTONIN” (Dongguk University Industry-Academic Cooperation Foundation, priority 2022, published 2026)

System: HBMEC (Human Brain Microvascular Endothelial Cell)
Assay: Nitric oxide production in HBMEC, gintonin pretreatment before NOS inhibitor
Type: cell-based
Conditions: 100 uM synthase inhibitor, 1 h, vs DMSO only
Experimental: First of all, HBMEC (Human Brain Microvascular Endothelial Cell) or imHBMEC (immortalized Human Brain Microvascular Endothelial Cell) were cultured in an appropriate culture medium under air conditions of 37° C., 5% carbon dioxide and 95% relative humidity. When the cells reached 80 to 90% confluency (average ~2 days), 10 ug/mL of gintonin was first pretreated and incubated for 1 hour, and then, a nitric oxide synthase (NOS) inhibitor was treated and incubated for another hour, then, the effect of changes in nitric oxide (NO) production was investigated. Afterwards, the concentration of nitric oxide synthase inhibitor was treated at 100 and 300 uM.

For `COC(=O)[C@@H](N)CCCNC(=N)N[N+](=O)[O-].Cl` [synthase inhibitor], the “reduction of nitric oxide (relative production)” value was “about 20%”.
